From ChEMBL document CHEMBL4316647, “Raistrickindole A, an Anti-HCV Oxazinoindole Alkaloid from Penicillium raistrickii IMB17-034” (J Nat Prod, 2019) come the findings set out here.

For the first series, the system named is HCT-116. Put plainly: Cytotoxicity against human HCT116 cells. In kind it is functional, cell-based.
Conditions: not given
Broadly, the IC50 is the concentration at which inhibition is half-maximal. A lower IC50 goes with inhibition by little substance. `O=C1N[C@@H](Cc2ccccc2)C(=O)N2O[C@H]3Nc4ccccc4[C@@]3(O)C[C@@H]12`: the IC50 was ≥ 100 µM.

For `O=C1NCc2nc3ccccc3c(=O)n2-c2ccccc21` [SCLEROTIGENIN], the IC50 was ≥ 100 µM.

With `O=C1Cn2c(nc3ccccc3c2=O)-c2ccccc2N1`, the IC50 was ≥ 100 µM.

On to `O=C1N[C@@H](Cc2ccccc2)C(=O)N(O)[C@H]1C[C@]1(O)c2ccccc2N2C(=O)C[C@@H](c3ccccc3)N[C@H]21`, for which the IC50 is ≥ 100 µM.

The subject of the next series is A549. Description: Cytotoxicity against human A549 cells. In kind it is functional, cell-based.
Conditions: not given
Take `O=C1N[C@@H](Cc2ccccc2)C(=O)N2O[C@H]3Nc4ccccc4[C@@]3(O)C[C@@H]12`: the IC50 was ≥ 100 µM.

Regarding `O=C1NCc2nc3ccccc3c(=O)n2-c2ccccc21` [SCLEROTIGENIN], the IC50 was ≥ 100 µM.

As for `O=C1Cn2c(nc3ccccc3c2=O)-c2ccccc2N1`, the half-inhibitory concentration (IC50) is ≥ 100 µM.

As for `O=C1N[C@@H](Cc2ccccc2)C(=O)N(O)[C@H]1C[C@]1(O)c2ccccc2N2C(=O)C[C@@H](c3ccccc3)N[C@H]21`, the half-maximal inhibitory concentration (IC50) is ≥ 100 µM.

The test system of another series is Escherichia coli. Put plainly: Antibacterial activity against Escherichia coli. In kind it is functional.
Conditions: not given
What is called MIC is the least concentration at which growth counts as inhibited. A lower MIC goes with inhibition by little substance. Take `O=C1N[C@@H](Cc2ccccc2)C(=O)N2O[C@H]3Nc4ccccc4[C@@]3(O)C[C@@H]12`: the MIC was > 128 µg/mL.

As to `O=C1NCc2nc3ccccc3c(=O)n2-c2ccccc21` [SCLEROTIGENIN], the minimum inhibitory concentration (MIC) is > 128 µg/mL.

As to `O=C1Cn2c(nc3ccccc3c2=O)-c2ccccc2N1`, the MIC was > 128 µg/mL.

For the compound `O=C1N[C@@H](Cc2ccccc2)C(=O)N(O)[C@H]1C[C@]1(O)c2ccccc2N2C(=O)C[C@@H](c3ccccc3)N[C@H]21`, the MIC is > 128 µg/mL.

The next series relates to Staphylococcus aureus. Description: Antibacterial activity against Staphylococcus aureus.
Conditions: not given
Type of series: functional.
With `O=C1N[C@@H](Cc2ccccc2)C(=O)N2O[C@H]3Nc4ccccc4[C@@]3(O)C[C@@H]12`, the MIC is > 128 µg/mL.

Take `O=C1NCc2nc3ccccc3c(=O)n2-c2ccccc21` [SCLEROTIGENIN]: the MIC is > 128 µg/mL.

Consider `O=C1Cn2c(nc3ccccc3c2=O)-c2ccccc2N1`, for which the MIC is > 128 µg/mL.

With `O=C1N[C@@H](Cc2ccccc2)C(=O)N(O)[C@H]1C[C@]1(O)c2ccccc2N2C(=O)C[C@@H](c3ccccc3)N[C@H]21`, the MIC was > 128 µg/mL.

Test system in another series: not listed separately
Description: Selectivity index, ratio of CC50 for Cytotoxicity against human Huh7.5 cells to EC50 for antiviral activity against HCV infected in human Huh7.5 cells. In kind it is toxicity, cell-based. Particulars: read-out: Ratio CC50/EC50.
Turning to `O=C1N[C@@H](Cc2ccccc2)C(=O)N2O[C@H]3Nc4ccccc4[C@@]3(O)C[C@@H]12`, the selectivity ratio was > 35.

In the case of `O=C1NCc2nc3ccccc3c(=O)n2-c2ccccc21` [SCLEROTIGENIN], the selectivity ratio was > 35.

Turning to `O=C1Cn2c(nc3ccccc3c2=O)-c2ccccc2N1`, the selectivity ratio was > 28.

With `CCC[C@H](NC(=O)[C@@H]1[C@H]2CCC[C@H]2CN1C(=O)[C@@H](NC(=O)[C@@H](NC(=O)c1cnccn1)C1CCCCC1)C(C)(C)C)C(=O)C(=O)NC1CC1` [TELAPREVIR], the selectivity ratio stood at 478.

Take `O=C1N[C@@H](Cc2ccccc2)C(=O)N(O)[C@H]1C[C@]1(O)c2ccccc2N2C(=O)C[C@@H](c3ccccc3)N[C@H]21`: the selectivity ratio was < 3.

Test system in another series: not listed separately
Description: Cytotoxicity against human Huh7.5 cells assessed as reduction in cell viability. In kind it is cell-based.
Conditions: not given
For orientation: CC50 means the concentration giving 50% cytotoxicity. For the compound `O=C1N[C@@H](Cc2ccccc2)C(=O)N2O[C@H]3Nc4ccccc4[C@@]3(O)C[C@@H]12`, the CC50 was > 200 µM.

On to `O=C1NCc2nc3ccccc3c(=O)n2-c2ccccc21` [SCLEROTIGENIN], for which the CC50 was > 200 µM.

As for `O=C1Cn2c(nc3ccccc3c2=O)-c2ccccc2N1`, the CC50 was > 200 µM.

As for `CCC[C@H](NC(=O)[C@@H]1[C@H]2CCC[C@H]2CN1C(=O)[C@@H](NC(=O)[C@@H](NC(=O)c1cnccn1)C1CCCCC1)C(C)(C)C)C(=O)C(=O)NC1CC1` [TELAPREVIR], the CC50 is 25.8 µM.

As to `O=C1N[C@@H](Cc2ccccc2)C(=O)N(O)[C@H]1C[C@]1(O)c2ccccc2N2C(=O)C[C@@H](c3ccccc3)N[C@H]21`, the CC50 worked out at 88.4 µM.

For another series, the system named is Hepatitis C virus. Put plainly: Antiviral activity against HCV infected in human Huh7.5 cells assessed as reduction in intracellular HCV RNA incubated for 72 hrs by real-time one-step reverse-transcription polymerase chain reaction assay. In kind it is functional, organism-based, Hepacivirus hominis. Particulars: Huh7.5, 72 h.
As usually defined, the EC50 is the concentration that produces a half-maximal response. As for `O=C1N[C@@H](Cc2ccccc2)C(=O)N2O[C@H]3Nc4ccccc4[C@@]3(O)C[C@@H]12`, the EC50 is 5.7 µM.

As for `O=C1NCc2nc3ccccc3c(=O)n2-c2ccccc21` [SCLEROTIGENIN], the EC50 is 5.8 µM.

For the compound `O=C1Cn2c(nc3ccccc3c2=O)-c2ccccc2N1`, the EC50 amounted to 7 µM.

As for `CCC[C@H](NC(=O)[C@@H]1[C@H]2CCC[C@H]2CN1C(=O)[C@@H](NC(=O)[C@@H](NC(=O)c1cnccn1)C1CCCCC1)C(C)(C)C)C(=O)C(=O)NC1CC1` [TELAPREVIR], the EC50 was 0.05 µM.

On to `O=C1N[C@@H](Cc2ccccc2)C(=O)N(O)[C@H]1C[C@]1(O)c2ccccc2N2C(=O)C[C@@H](c3ccccc3)N[C@H]21`, for which the EC50 was > 33.3 µM.

A further series has as its system Pseudomonas aeruginosa. Description: Antibacterial activity against Pseudomonas aeruginosa. In kind it is functional.
Conditions: not given
`O=C1N[C@@H](Cc2ccccc2)C(=O)N2O[C@H]3Nc4ccccc4[C@@]3(O)C[C@@H]12`: the MIC is > 128 µg/mL.

In the case of `O=C1NCc2nc3ccccc3c(=O)n2-c2ccccc21` [SCLEROTIGENIN], the minimum inhibitory concentration (MIC) is > 128 µg/mL.

For the compound `O=C1Cn2c(nc3ccccc3c2=O)-c2ccccc2N1`, the MIC is > 128 µg/mL.

On to `O=C1N[C@@H](Cc2ccccc2)C(=O)N(O)[C@H]1C[C@]1(O)c2ccccc2N2C(=O)C[C@@H](c3ccccc3)N[C@H]21`, for which the minimal inhibitory concentration (MIC) was > 128 µg/mL.

The next series relates to NCI-H460. Put plainly: Cytotoxicity against human NCI-H460 cells.
Conditions: not given
In kind it is functional, cell-based.
With `O=C1N[C@@H](Cc2ccccc2)C(=O)N2O[C@H]3Nc4ccccc4[C@@]3(O)C[C@@H]12`, the IC50 was ≥ 100 µM.

Turning to `O=C1NCc2nc3ccccc3c(=O)n2-c2ccccc21` [SCLEROTIGENIN], the 50% inhibitory concentration (IC50) is ≥ 100 µM.

In the case of `O=C1Cn2c(nc3ccccc3c2=O)-c2ccccc2N1`, the IC50 is ≥ 100 µM.

On to `O=C1N[C@@H](Cc2ccccc2)C(=O)N(O)[C@H]1C[C@]1(O)c2ccccc2N2C(=O)C[C@@H](c3ccccc3)N[C@H]21`, for which the IC50 is ≥ 100 µM.

For another series, the system named is Enterococcus faecalis. Description: Antibacterial activity against Enterococcus faecalis. In kind it is functional.
Conditions: not given
In the case of `O=C1N[C@@H](Cc2ccccc2)C(=O)N2O[C@H]3Nc4ccccc4[C@@]3(O)C[C@@H]12`, the MIC is > 128 µg/mL.

`O=C1NCc2nc3ccccc3c(=O)n2-c2ccccc21` [SCLEROTIGENIN]: the MIC is > 128 µg/mL.

Turning to `O=C1Cn2c(nc3ccccc3c2=O)-c2ccccc2N1`, the minimum inhibitory concentration (MIC) was > 128 µg/mL.

As to `O=C1N[C@@H](Cc2ccccc2)C(=O)N(O)[C@H]1C[C@]1(O)c2ccccc2N2C(=O)C[C@@H](c3ccccc3)N[C@H]21`, the MIC was > 128 µg/mL.
